Values of other authors, collected in patent US6455574B1, “Therapeutic combination” (Pfizer Inc., priority 1997, dated 2002).

Columns and labels:
calcium channel = settings: see International Patent Application Number PCT/EP94/02697
[1] = test system: smooth muscle cell migration; settings: see International Patent Application Number PCT/EP95/00847

CCOC(=O)C1=C(COCCN)NC(C)=C(C(=O)OC)[C@H]1c1ccccc1Cl (single isomer, unassigned) [R(+) isomer]
calcium channel blocking activity (calcium channel): little or no
inhibition of smooth muscle cell migration [1]: potent inhibitor

CCOC(=O)C1=C(COCCN)NC(C)=C(C(=O)OC)[C@@H]1c1ccccc1Cl (single isomer, unassigned) [S(−) isomer]
calcium channel blocking activity (calcium channel): substantially confined to the S(−) isomer
